These results are taken from patent publication US10227347B2, “Purinyl-N-hydroxyl pyrimidine formamide derivative, preparation methods and uses thereof” (Guizhou Bailing Group Pharmaceutical CO., LTD., priority 2015, dated 2019).

One series deals with T1, mTOR (Homo sapiens, UniProt P42345).
T1 construct: purchased Millipore 14-770
The series is described as follows: mTOR activity inhibition (ULight-4E-BP1 peptide). As to conditions: Table 1, graded. The class given is biochemical. How it is done:
mTOR protein is purchased from Millipore Company (Catalog No.: 14-770). The reaction buffer system comprises 50 mM HEPES, 10 mM MgCl2, 1 mM EGTA, 3 mM […], 0.01% Tween-20 (purchased from Chengdu Kelong Chemical Regent Factory) and 2 mM DTT. The pH value of the reaction buffer is 7.5. Preparing 10 μL reaction system in corresponding wells of the 384 well plate, which contains the compositions as: the compound with designed concentration (or blank control), mTOR protein (with the concentration of 2.5 nM), ULight-4E-BP1 (containing the 37th and the 46th threonine residues, Thr37/46) peptide (purchased from PE Company, Catalog No.: TRF0128-M) and ATP substrates (ULight-4E-BP1 peptide, with the concentration of 50 nM and ATP, with the concentration of […]). Mixing it evenly for incubation under ambient temperature for 1 h; adding 10 μL testing liquid containing EDTA (ethylenediaminetetraacetic acid) and Eu-anti-phosphorylation-4E-BP1 (Thr37/46) antibody (purchased from PE Company, Catalog No.: TRF0216-M) into the reaction wells (after the testing liquid is added, the concentration of EDTA is 8 mM and the concentration of Eu-phosphorylation-4E-BP1 antibody is 2 nM); mixing it evenly and incubating it for 1 h under ambient temperature, then measuring the fluorescence intensity with a microplate reader and analyzing the result data with the software GraphPad Prism.
Calculating the value of IC50 as per the formula: Y=background data+(top data−background data)/(1+10^((Log IC50−X)*rate of curve))
Where, Y refers to the inhibition ratio (%) and X refers to the compound concentration.

A further series has as its target T2, HDAC7 (Homo sapiens, UniProt Q8WUI4).
T2 construct: purchased BPS Bioscience 50007
T2 sequence (Q8WUI4 518-952 limits assumed): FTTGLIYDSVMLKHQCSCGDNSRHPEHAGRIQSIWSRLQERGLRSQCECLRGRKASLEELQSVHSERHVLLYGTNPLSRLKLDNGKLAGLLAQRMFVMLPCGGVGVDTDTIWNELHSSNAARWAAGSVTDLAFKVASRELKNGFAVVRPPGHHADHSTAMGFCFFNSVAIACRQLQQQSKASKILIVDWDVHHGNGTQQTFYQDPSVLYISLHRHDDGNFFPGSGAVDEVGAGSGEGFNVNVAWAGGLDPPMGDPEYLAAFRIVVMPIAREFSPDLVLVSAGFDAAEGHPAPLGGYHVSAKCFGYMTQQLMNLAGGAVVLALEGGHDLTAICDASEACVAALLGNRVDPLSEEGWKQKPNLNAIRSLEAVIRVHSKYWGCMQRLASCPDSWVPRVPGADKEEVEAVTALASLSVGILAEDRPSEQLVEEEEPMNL
The series is described as follows: HDAC7 enzyme inhibition (Lys-Ac-AMC). The class given is biochemical. As to conditions: Table 4, graded. How it is done:
(§1) Determining the inhibition capability of HDAC through the substrate method of fluorophore coupled acetylized peptide fragment (Lys-Ac-AMC). HDAC2-11 proteins of subtypes are purchased from BPS Bioscience Company with the Art. […] The reaction buffer system is a modified Tris buffer (pH7.0). The small molecule compounds are prepared and dissolved with 100% DMSO. […] Adding the compound into the reaction wells of the 384 well plate at the designed concentration, then adding 15 μL HDAC enzyme solution into the reaction wells (adding 15 μL blank buffer into the control well 0) for incubation under ambient temperature for 15 min; then adding 10 μL substrate solution to start reaction.
(§2) Analyzing the result data with the software GraphPad Prism and calculating the value of IC50 as per the formula: Y=background data+(top data−background data)/(1+10^((Log IC50−X)*rate of curve)). Where, Y refers to the inhibition ratio (%) and X refers to the compound concentration.

Another series has as its target T3, HDAC3 (Homo sapiens, UniProt O15379).
T3 construct: purchased BPS Bioscience 50003
The series can be described thus: HDAC3 enzyme inhibition (Lys-Ac-AMC). Conditions: Table 4, graded. The class given is biochemical. How it is done:
as §1, §2

Series [1] deals with human B-cell lymphoma Raji subcutaneous tumor. The series is described as follows: Subcutaneous tumor model, human B-cell lymphoma Raji. As to conditions: once per 2 days, intraperitoneal.
Series [2] concerns human colon cancer hct116 subcutaneous tumor. The series can be described thus: Subcutaneous tumor model, human colon cancer hct116. Conditions: once per 2 days, intravenous.
In series [3] the test system is human breast cancer MCF-7 subcutaneous tumor. The series is described as follows: Subcutaneous tumor model, human breast cancer MCF-7. Conditions: once per 2 days.
Series [4] concerns human multiple myeloma MM1S subcutaneous tumor. The series is described as follows: Subcutaneous tumor model, human multiple myeloma MM1S. As to conditions: once per 2 days. As for the experimental part: (§3) Cell MM1S is cultured in RPMI1640 medium (HyClone) which contains 10% fetal calf serum (Hohhot Caoyuan Lvye Bioengineering Material Co., Ltd.) and 100 U/mL penicillin and streptomycin (Beyotime).
(§4) 3) Inoculation, grouping and treatment: collecting cells in logarithmic phase under aseptic conditions and counting; diluting the single cell suspension with the medium containing neither fetal calf serum nor antibiotics to 1×10^7-8 cell/mL for standby. Mixing the cell suspension; injecting 100 μL of cell suspension (5×10^6-2×10^7 cells) subcutaneously with a 1 mL injector on the right side of the back of animals. Weeding out the animals with oversized and undersized tumor when the tumor grows to an average volume of about 120 mm^3 and grouping the qualified animals for treatment and drug administration. Refer to Table 7 for each grouping model and drug administration frequency. Measuring the weight of each model per 2 days and measuring the length and width of the tumor with a vernier caliper; killing the tested animals through cervical dislocation and peeling off their tumors for weight measuring and photographing. Then calculating the tumor inhibition ratio (%) and evaluating the inhibition intensity to tumor with such tumor inhibition ratio.

Series [5] relates to human breast cancer MDA-MB-231 subcutaneous tumor. The series can be described thus: Subcutaneous tumor model, human breast cancer MDA-MB-231. Conditions: once per 2 days. As for the experimental part:
as §3, §4

T3 sequence (O15379 whole entry, species assumed): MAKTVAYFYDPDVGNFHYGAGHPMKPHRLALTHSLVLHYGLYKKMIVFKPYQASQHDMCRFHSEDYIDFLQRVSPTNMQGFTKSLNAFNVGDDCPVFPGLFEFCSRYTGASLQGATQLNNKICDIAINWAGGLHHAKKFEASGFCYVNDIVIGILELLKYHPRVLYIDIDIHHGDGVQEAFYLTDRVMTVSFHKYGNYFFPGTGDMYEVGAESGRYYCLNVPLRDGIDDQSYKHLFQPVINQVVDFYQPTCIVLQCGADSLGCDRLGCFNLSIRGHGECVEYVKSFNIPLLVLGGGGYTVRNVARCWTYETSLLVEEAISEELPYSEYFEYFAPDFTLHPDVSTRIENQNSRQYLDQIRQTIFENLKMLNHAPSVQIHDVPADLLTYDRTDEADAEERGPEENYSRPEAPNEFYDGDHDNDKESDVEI
T3 sequence (Q9Y618 395-489 partner limits assumed, species assumed): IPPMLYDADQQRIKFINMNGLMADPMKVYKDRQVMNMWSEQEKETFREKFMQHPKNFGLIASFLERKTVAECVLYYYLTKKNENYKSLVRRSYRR
T1 sequence (P42345 1362-2549 limits assumed): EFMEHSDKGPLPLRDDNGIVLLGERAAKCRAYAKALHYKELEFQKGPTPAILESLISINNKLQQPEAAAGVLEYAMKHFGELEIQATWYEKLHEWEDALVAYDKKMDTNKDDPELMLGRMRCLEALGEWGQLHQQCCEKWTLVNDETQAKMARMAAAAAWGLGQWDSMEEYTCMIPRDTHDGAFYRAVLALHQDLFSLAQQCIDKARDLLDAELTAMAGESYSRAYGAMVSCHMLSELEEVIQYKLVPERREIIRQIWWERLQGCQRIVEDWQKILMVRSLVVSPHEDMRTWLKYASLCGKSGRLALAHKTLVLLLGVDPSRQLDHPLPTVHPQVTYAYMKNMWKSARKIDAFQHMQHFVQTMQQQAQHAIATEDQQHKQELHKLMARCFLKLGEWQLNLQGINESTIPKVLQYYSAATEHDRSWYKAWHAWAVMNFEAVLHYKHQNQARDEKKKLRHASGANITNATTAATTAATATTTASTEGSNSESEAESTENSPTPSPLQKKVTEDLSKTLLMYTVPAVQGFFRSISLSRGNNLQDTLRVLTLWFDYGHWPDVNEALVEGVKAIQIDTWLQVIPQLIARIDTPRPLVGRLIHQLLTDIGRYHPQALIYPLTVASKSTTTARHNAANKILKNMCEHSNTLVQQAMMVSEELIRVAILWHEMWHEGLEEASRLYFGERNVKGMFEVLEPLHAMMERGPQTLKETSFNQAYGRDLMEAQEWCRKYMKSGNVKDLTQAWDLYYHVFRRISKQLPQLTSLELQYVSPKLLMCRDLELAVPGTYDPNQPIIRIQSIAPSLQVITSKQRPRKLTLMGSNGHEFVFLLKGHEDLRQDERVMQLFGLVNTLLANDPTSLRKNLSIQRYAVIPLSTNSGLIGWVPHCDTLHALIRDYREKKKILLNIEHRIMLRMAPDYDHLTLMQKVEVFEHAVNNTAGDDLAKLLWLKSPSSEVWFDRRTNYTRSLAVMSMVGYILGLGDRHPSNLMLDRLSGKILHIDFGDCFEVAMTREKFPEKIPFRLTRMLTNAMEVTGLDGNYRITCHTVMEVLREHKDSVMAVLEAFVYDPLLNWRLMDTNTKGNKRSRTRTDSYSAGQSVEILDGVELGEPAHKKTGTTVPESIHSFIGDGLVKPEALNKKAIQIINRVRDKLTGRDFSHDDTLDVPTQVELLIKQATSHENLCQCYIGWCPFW

The IC50 is the concentration at which inhibition is half-maximal. High values mean weaker potency in that assay, low ones greater potency in that assay. On to `COc1ccc(-c2nc(N3CCOCC3)c3nc(CN(C)c4ncc(C(=O)NO)cn4)n(C)c3n2)cn1` [CLJ-1, 2-(((2-(6-methoxypyridine-3-yl)-9-methyl-6-morpholine-9H-purine-8-yl))methyl(methyl)amino)-N-hydroxyl pyrimidine-5-formamide], for which the IC50 on mTOR lay in the range of 1000 to 10000 nM; against HDAC7, 1000 to 10000 nM; on HDAC3, 1 to 100 nM.
Turning to `CN(Cc1nc2c(N3CCOCC3)nc(-c3cnc(N)nc3)nc2n1C)c1ncc(C(=O)NO)cn1` [CLJ-11, 2-(((2-(2-aminopyrimidine-5-yl)-9-methyl-6-morpholine-9H-purine-8-yl))methyl(methyl)amino)-N-hydroxyl pyrimidine-5-formamide], the figures for the IC50 on mTOR, on HDAC7 and against HDAC3 were 100 to 1000 nM, 100 to 1000 nM and 1 to 100 nM, respectively.
For `COc1ccc(-c2nc(N3CCOCC3)c3nc(CN(C)c4ncc(C(=O)NO)cn4)n(C)c3n2)cc1` [CLJ-29, 2-(((2-(4-methoxyphenyl)-9-methyl-6-morpholine-9H-purine-8-yl))methyl(methyl)amino)-N-hydroxyl pyrimidine-5-formamide], the IC50 at HDAC7 lay in the range of 1000 to 10000 nM; at HDAC3 it was 1 to 100 nM.
On to `CN(Cc1nc2c(N3CCOCC3)nc(-c3ccc(N)cc3)nc2n1C)c1ncc(C(=O)NO)cn1` [CLJ-44], for which the Death in series [1] (5 mg/kg), in series [1] (10 mg/kg), in series [1] (20 mg/kg), in series [2] (2.5 mg/kg), in series [2] (5 mg/kg) and in series [2] (10 mg/kg) was 0/6 in each case. In addition, the Death in series [3] (2.5 mg/kg, intravenous) was 0/6; in series [3] (5 mg/kg, intravenous) it was 0/6; in series [3] (10 mg/kg, intravenous), 0/6; in series [4] (2.5 mg/kg, intravenous) it was 0/7; in series [4] (5 mg/kg, intravenous), 0/7; in series [4] (10 mg/kg, intravenous), 0/7. For the same compound, the Death in series [5] (2.5 mg/kg, intravenous) is recorded as 0/6; in series [5] (5 mg/kg, intravenous), 0/6; in series [5] (10 mg/kg, intravenous), 0/6. For the same compound, the “Inhibitory rate (%)” value was found to be 76.96% in series [1] (5 mg/kg); 97.34% in series [1] (10 mg/kg); 99.29% in series [1] (20 mg/kg); 49.4% in series [2] (2.5 mg/kg); 53.3% in series [2] (5 mg/kg); 68.2% in series [2] (10 mg/kg). Moreover, the “Inhibitory rate (%)” value in series [3] (2.5 mg/kg, intravenous) amounted to 69.58%; in series [3] (5 mg/kg, intravenous), 77.58%; in series [3] (10 mg/kg, intravenous), 82.24%; in series [4] (2.5 mg/kg, intravenous), 45.09%; in series [4] (5 mg/kg, intravenous), 69.65%; in series [4] (10 mg/kg, intravenous), 71.94%. Also, the “Inhibitory rate (%)” value in series [5] (2.5 mg/kg, intravenous) is listed as 72.1%; in series [5] (5 mg/kg, intravenous), 83.9%; in series [5] (10 mg/kg, intravenous), 86.9%. The figures for the IC50 against HDAC7 and at HDAC3 were 1000 to 10000 nM and 1 to 100 nM, respectively.
Take `Cc1[nH]c2ccccc2c1CCNCc1ccc(/C=C/C(=O)NO)cc1` [LBH589, panobinostat, reference compound]: the Death in series [1] (10 mg/kg) was 0/6; in series [3] (10 mg/kg, intraperitoneal), 0/6; in series [4] (10 mg/kg, intraperitoneal) it was 0/7; in series [5] (10 mg/kg, intraperitoneal), 0/6. Further, the “Inhibitory rate (%)” value came out at 54.93% in series [1] (10 mg/kg); 75.69% in series [3] (10 mg/kg, intraperitoneal); 47.33% in series [4] (10 mg/kg, intraperitoneal); 77.95% in series [5] (10 mg/kg, intraperitoneal).
